Measurements published in patent US20090035270A1, “COMBINATION THERAPY USING ANTI-ANGIOGENIC AGENTS AND TNF alpha” (priority 2001, published 2009).
Residues, ends and D or L forms follow the SMILES beside them. *: point of attachment. Cbz = O=C(OCc1ccccc1)*; CH2F = FC*

How the values were obtained:
Assay type in all cases: cell-based, human
ICAM-1 expression = assay: Flow cytometry of ICAM-1 cell surface expression induced by TNF in HUVEC; settings: HUVEC treated with TNF
Experimental: Activation of the nuclear factor-κB (NF-κB) promotes survival of cells exposed to TNF (Beg & Baltimore, Science 274, 782-784; Van Antwerp et al., Science 274, 787-789 (1996)). Since cell adhesion via integrins activates NF-κB (Scatena et al., J. Cell Biol. 141, 1083-1093 (1998)), we investigated whether the sensitivity of spheroids to TNF-induced apoptosis was due to lack of NF-κB activation. NF-κB activation was assessed by measuring I-κB phosphorylation and degradation, NF-κB nuclear translocation and cell surface expression of ICAM-1, an NF-κB-induced gene (Collins et al., Faseb J. 9, 899-909. (1995)), in spheroid and fibronectin-adherent HUVEC cultures exposed to TNF±IFNγ.
Aktmp suppresses TNF-induced apoptosis of spheroids in the presence of active NF-κB. We also tested whether both NF-κB activation and active Akt signaling were required for the survival, or whether active Akt alone was sufficient. […]
Indirect immunostaining of HUVEC and EGFP expression were performed following standard protocol (Ruegg et al., I.c.). […] Ail samples were analyzed with a FACScan II® and Cell Quest® software (Becton Dickinson, Mountain View Calif., USA).

HUVEC [1] = assay: HUVEC spheroid formation (aggregation) in BSA-coated wells; settings: mAbs 10 μg/ml, EDTA 5 mM, evaluated at 6 and 16 hours
Experimental: To test the effect of integrin ligation on TNF-induced apoptosis we identified conditions where endothelial cells could be cultured without integrin-dependent adhesion. Single cell suspensions of endothelial cells rapidly die by anoikis (Meredith et al., Mol. Biol. Cell 4, 953-961 (1993)) thus precluding further analysis. But by seeding human umbilical vein endothelial cells (HUVEC) at high density (1.0×10^6 cells/ml) in BSA-coated wells multicellular spheroids formed within 2-4 hours, and could be maintained for over 24 hours dependent on VE-cadherin and without any detectable contribution from integrins.
HUVEC were collected by trypsinization, resuspended in complete medium at 1.0×10^6 cells/ml and 1 ml/well were seeded into 12 wells non-tissue culture plates (Evergreen Scientific, Los Angeles, Calif., USA) previously coated with 1% BSA. For aggregation studies, 200 μl of the cell suspension were seeded into 1% BSA-coated microwells of ELISA plates (Maxisorp II, NUNC, Roskilde, Denmark) alone or in the presence of mAbs (10 μg/ml), EDTA (5 mM) or Ca^2+/EDTA (10/5 mM). Spheroid formation was evaluated at 6 hours and 16 hours. Micrographs were take with a Televal 31 microscope (Cart Zeiss AG, Zürich; Switzerland).

HUVEC [2] = assay: Detection of apoptotic HUVEC in culture (YoPro-1 staining); settings: spheroids; TNF±IFNγ
Experimental: To test whether integrins modulate TNF-induced apoptosis, we cultured HUVEC on fibronectin (integrin-dependent adhesion) or as spheroids (integrin-independent adhesion) in the absence or presence of TNF (200 ng/ml) and of IFNγ (330 ng/ml), an enhancer of TNF cytotoxicity (Dealtry et al., Eur. J. Immunol. 17, 689-693 (1987)). […] In contrast, spheroids treated with TNF±IFNγ increased uptake of YoPro-1 (an increase suppressed by caspase inhibitors BOC, Z-VAD, IETD and DVED), DNA fragmentation, caspase-3 activation and cleavage of PARP (FIG. 2a, 2b and data not shown). To examine the effect of TNF±IFNγ on cell survival we determined the viability of untreated and treated cultures. […] Treatment with IFNγ alone was not cytotoxic (data not shown). HUVEC adhere to immobilized fibronectin via αVβ3 and α5β1 integrins (Rüegg et al., Nature Med. 4, 408-414 (1998)). To test for the individual contribution of these integrins to cell survival on fibronectin, we cultured HUVEC on plastic-immobilized mAbs (imAbs) directed against αVβ3, α1, α5 and α4 integrins.
For morphological evaluation, spheroids were embedded in Epon (Fluka Chemie) and thick sections were stained with 1% Methylene/Azur blue. For immunostaining, frozen spheroid sections were fixed in 4% (Fluka Chemis, Buchs, Switzerland) formaldehyde. After blocking with 1% BSA, sections were sequentially incubated for 1 hour with primary mAb (20 μg/ml) and a Cyan3-labeled GaM antiserum (West Grove, Pa., USA). For the TUNEL reaction, frozen spheroids sections were fixed in 4% paraformaledhyde and processed as described (Ruegg et al., I.e.). Spherouids were countsrstained with propidium iodide for total DNA content. […] The apoptosis index was determined by calculating the ratio between the green (TUNEL staining of fragmented DNA) and red (propidium iodide staining by total DNA) pixels. Number of analyzed spheroids per condition were: C, 31; T, 21; TI, 12. […] Cultures were viewed by inverted fluorescence microscopy (Leica DM IRB, Heerbrugg, Switzerland). […]

HUVEC [3] = assay: Death ligand cytotoxicity on fibronectin-cultured HUVEC with EMD121974 (viability); settings: EMD121974 300 μM, ligand 200 ng/ml, overnight
Experimental: FIG. 8. Decreased integrin ligation enhances TNF-, TRAIL- and FasL-induced cytotoxicity in vitro. HUVEC were cultured overnight on fibronectin coated microtiter plates in the absence (control) or presence of EMD121974 (300 μM), TNF (200 ng/ml), FasL (200 ng/ml), TRAIL (200 ng/ml), LIGHT (200 ng/ml), and IFNγ (330 ng/ml) as indicated. Viability was determined by MST assays.

Molecule: O=c1cc(N2CCOCC2)oc2c(-c3ccccc3)cccc12 [LY294002]
- inhibition of ICAM-1 expression induced by TNF (ICAM-1 expression): did not inhibit

Molecule: O=C(O)CN(CCN(CC(=O)O)CC(=O)O)CC(=O)O [EDTA]
- HUVEC spheroid formation (HUVEC [1]): blocked spheroid formation

Molecule: CC(NC(=O)C(NC(=O)OCc1ccccc1)C(C)C)C(=O)NC(CC(=O)O)C(=O)CF (stereo not drawn) [Z-VAD] (Cbz-Val-Ala-Asp-CH2F; configuration not given here)
- effect of caspase inhibitor on increased YoPro-1 uptake of spheroids treated with TNF±IFNγ (HUVEC [2]): suppressed

Molecule: COC[C@H]1OC(=O)c2coc3c2[C@@]1(C)C1=C(C3=O)[C@@H]2CCC(=O)[C@@]2(C)C[C@H]1OC(C)=O [wortmannin]
- inhibition of ICAM-1 expression induced by TNF (ICAM-1 expression): did not inhibit

Molecule: IETD
- effect of caspase inhibitor on increased YoPro-1 uptake of spheroids treated with TNF±IFNγ (HUVEC [2]): suppressed

B1: LIGHT: ligand binding to receptors lacking a death domain (protein, UniProt O43557 83-240, looked up)
Tumor necrosis factor ligand …: LIQERRSHEVNPAAHLTGANSSLTGSGGPLLWETQLGLAFLRGLSYHDGALVVTKAGYYYIYSKVQLGGVGCPLGLASTITHGLYKRTPRYPEELELLVSQQSPCGRATSSSRVWWDSSFLGGVVHLEAGEKVVVRVLDERLVRLRDGTRSYFGAFMV
- sensitivity to pro-apoptotic effects of death ligand in the presence of EMD121974 (synergism with αVβ3-blockage) (HUVEC [3]): no synergism

B2: FasL: death ligand of the TNF-ligand family (Fas ligand) (protein, UniProt P48023 130-281, looked up)
Tumor necrosis factor ligand …: QIGHPSPPPEKKELRKVAHLTGKSNSRSMPLEWEDTYGIVLLSGVKYKKGGLVINETGLYFVYSKVYFRGQSCNNLPLSHKVYMRNSKYPQDLVMMEGKMMSYCTTGQMWARSSYLGAVFNLTSADHLYVNVSELSLVNFEESQTFFGLYKL
- sensitivity to pro-apoptotic effects of death ligand in the presence of EMD121974 (synergism with αVβ3-blockage) (HUVEC [3]): Increased sensitivity

B3: TRAIL: death ligand of the TNF-ligand family (protein, UniProt P50591 1-281, looked up)
Tumor necrosis factor ligand …: MAMMEVQGGPSLGQTCVLIVIFTVLLQSLCVAVTYVYFTNELKQMQDKYSKSGIACFLKEDDSYWDPNDEESMNSPCWQVKWQLRQLVRKMILRTSEETISTVQEKQQNISPLVRERGPQRVAAHITGTRGRSNTLSSPNSKNEKALGRKINSWESSRSGHSFLSNLHLRNGELVIHEKGFYYIYSQTYFRFQEEIKENTKNDKQMVQYIYKYTSYPDPILLMKSARNSCWSKDAEYGLYSIYQGGIFELKENDRIFVSVTNEHLIDMDHEASFFGAFLVG
- sensitivity to pro-apoptotic effects of death ligand in the presence of EMD121974 (synergism with αVβ3-blockage) (HUVEC [3]): Increased sensitivity
